Results published in paper PMC3914206.

Tests used:
Type in all cases: binding
Details in all cases: Compound Concentration 10 µM
panel of 442 kinases [1] = target: T1, panel of 442 kinases (Homo sapiens, UniProt P07948)
T1 construct: purchased KINOMEscan
From the text: (§1) We assessed the selectivity of members of this scaffold using the KINOMEscan methodology across a near comprehensive panel of 442 kinases [[18,27]].

panel of 442 kinases [2] = target: T2, panel of 442 kinases (Homo sapiens, UniProt P22607)
T2 construct: purchased KINOMEscan
T2 sequence (P22607 23-806): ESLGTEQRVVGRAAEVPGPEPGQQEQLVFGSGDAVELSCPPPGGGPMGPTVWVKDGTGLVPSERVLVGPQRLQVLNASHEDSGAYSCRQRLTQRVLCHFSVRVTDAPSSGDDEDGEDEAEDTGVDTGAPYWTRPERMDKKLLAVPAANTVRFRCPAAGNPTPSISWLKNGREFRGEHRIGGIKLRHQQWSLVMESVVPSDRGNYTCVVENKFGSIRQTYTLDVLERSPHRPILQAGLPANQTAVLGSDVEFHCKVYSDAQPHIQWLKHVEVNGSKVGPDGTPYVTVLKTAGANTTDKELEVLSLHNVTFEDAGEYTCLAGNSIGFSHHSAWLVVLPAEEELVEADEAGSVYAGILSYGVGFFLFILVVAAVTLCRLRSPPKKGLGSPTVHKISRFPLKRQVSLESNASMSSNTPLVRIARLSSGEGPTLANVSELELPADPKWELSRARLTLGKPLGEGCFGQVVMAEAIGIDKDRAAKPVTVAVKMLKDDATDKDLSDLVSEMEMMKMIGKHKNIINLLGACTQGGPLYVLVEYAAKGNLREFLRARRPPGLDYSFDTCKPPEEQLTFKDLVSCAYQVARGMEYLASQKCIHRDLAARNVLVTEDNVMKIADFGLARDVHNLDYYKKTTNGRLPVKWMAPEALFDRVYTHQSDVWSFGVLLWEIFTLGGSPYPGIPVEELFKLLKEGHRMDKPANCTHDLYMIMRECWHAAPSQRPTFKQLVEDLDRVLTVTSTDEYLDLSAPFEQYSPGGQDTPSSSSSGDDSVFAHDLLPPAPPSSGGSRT
From the text: as §1

panel of 442 kinases [3] = target: T3, panel of 442 kinases (Homo sapiens, UniProt P42336, M1043I)
T3 construct: purchased KINOMEscan
T3 sequence (P42336 whole entry M1043I): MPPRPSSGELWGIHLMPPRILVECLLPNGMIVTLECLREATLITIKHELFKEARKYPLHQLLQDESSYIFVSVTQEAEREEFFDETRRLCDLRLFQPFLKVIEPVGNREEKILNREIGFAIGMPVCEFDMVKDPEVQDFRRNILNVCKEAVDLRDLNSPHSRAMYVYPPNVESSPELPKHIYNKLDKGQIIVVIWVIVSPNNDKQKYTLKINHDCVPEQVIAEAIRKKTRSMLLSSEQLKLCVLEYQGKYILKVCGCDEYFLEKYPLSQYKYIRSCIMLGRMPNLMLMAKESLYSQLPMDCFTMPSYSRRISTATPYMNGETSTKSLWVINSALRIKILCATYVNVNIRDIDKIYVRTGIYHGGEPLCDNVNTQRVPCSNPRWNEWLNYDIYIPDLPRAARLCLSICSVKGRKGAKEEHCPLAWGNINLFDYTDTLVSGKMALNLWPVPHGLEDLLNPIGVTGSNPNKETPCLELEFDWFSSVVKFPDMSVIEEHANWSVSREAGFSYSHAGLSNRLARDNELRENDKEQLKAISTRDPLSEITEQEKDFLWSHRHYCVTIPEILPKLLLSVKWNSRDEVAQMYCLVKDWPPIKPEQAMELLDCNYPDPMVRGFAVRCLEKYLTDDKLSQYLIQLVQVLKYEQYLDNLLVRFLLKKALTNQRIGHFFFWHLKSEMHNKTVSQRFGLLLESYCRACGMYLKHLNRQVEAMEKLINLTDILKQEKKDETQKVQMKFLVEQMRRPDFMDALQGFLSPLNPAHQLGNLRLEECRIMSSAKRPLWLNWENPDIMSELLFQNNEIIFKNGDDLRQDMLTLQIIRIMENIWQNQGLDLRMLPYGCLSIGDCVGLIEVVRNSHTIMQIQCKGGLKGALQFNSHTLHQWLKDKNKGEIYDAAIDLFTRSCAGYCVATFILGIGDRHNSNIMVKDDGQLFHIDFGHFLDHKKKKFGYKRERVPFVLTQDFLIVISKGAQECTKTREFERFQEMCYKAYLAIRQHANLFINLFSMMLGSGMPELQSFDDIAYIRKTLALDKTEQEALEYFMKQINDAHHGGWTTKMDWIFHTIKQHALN
From the text: as §1

panel of 442 kinases [4] = target: T4, panel of 442 kinases (Homo sapiens, UniProt Q9C098)
T4 construct: purchased KINOMEscan
T4 sequence (Q9C098 whole entry): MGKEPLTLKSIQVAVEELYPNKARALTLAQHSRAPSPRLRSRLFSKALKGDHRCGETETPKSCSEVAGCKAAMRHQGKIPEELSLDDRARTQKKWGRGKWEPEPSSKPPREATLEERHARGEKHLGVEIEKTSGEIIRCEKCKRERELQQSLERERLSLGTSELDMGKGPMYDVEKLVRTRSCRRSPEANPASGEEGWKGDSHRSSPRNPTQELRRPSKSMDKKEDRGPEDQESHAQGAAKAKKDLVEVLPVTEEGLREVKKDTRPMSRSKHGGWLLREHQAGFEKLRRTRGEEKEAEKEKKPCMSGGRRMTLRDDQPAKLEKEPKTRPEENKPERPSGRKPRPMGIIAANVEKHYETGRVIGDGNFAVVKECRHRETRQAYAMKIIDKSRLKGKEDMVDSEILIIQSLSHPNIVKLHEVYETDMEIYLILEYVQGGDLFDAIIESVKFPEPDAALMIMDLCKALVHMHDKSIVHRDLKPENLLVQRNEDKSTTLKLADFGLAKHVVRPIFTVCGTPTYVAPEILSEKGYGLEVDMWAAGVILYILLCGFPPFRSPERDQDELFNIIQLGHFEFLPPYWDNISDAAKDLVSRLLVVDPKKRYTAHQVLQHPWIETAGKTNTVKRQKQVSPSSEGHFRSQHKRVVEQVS
From the text: as §1

T1 sequence (P07948 whole entry): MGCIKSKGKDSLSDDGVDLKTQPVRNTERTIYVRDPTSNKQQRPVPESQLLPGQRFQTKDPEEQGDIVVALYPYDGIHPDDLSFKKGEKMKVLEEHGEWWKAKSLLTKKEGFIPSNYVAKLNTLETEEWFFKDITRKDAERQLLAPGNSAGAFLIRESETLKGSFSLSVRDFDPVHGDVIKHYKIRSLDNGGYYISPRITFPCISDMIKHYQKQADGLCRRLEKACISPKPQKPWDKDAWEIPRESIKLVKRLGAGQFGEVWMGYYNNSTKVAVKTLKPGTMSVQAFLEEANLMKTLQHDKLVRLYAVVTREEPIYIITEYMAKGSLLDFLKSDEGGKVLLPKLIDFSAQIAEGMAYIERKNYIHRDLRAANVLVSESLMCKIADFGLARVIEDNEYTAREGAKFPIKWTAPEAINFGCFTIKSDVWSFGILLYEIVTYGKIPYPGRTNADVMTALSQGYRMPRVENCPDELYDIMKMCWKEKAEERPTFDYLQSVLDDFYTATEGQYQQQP

Row | SMILES | KINOMEscan: LYN (panel of 442 kinases [1]) | KINOMEscan: FGFR3 (panel of 442 kinases [2]) | KINOMEscan: PIK3CA(M1043I) (panel of 442 kinases [3]) | KINOMEscan: DCAMKL3 (panel of 442 kinases [4])
1 | COc1cc(C(=O)N2CCC(N3CCN(C)CC3)CC2)ccc1Nc1ncc2c(n1)N1CCc3cccc(c31)C(=O)N2C [Compound 24] | 83 | 80 | 66 | –
2 | CCOc1cc(C(=O)N2CCC(N3CCN(C)CC3)CC2)ccc1Nc1ncc2c(n1)N(C1CCCC1)c1ccccc1C(=O)N2C [Compound 26] | 100 | 100 | 92 | 92
3 | COc1cc(C(=O)N2CCC(N3CCN(C)CC3)CC2)ccc1Nc1ncc2c(n1)N(C1CCCC1)c1ccccc1C(=O)N2C [Compound 25, 11-cyclopentyl-2-((2-methoxy-4-(4-(4-methylpiperazin-1-yl)piperidine-1-carbonyl)phenyl)amino)-5-methyl-5H-benzo[e]pyrimido[5,4-b][1,4]diazepin-6(11H)-one] | 85 | 88 | 93 | 100
4 | COc1cc(C(=O)N2CCC(N3CCN(C)CC3)CC2)ccc1Nc1ncc2c(n1)N(C)c1ccccc1C(=O)N2C [15 (LRRK2-IN-1)] | 100 | 80 | 65 | 90
